Assay [1] deals with Salmonella spp. Put plainly: Coloring reaction test of chromogenic reagents, 96 well plate. It is filed as biochemical. Particulars: chromogenic reagent terminal concentration 10 mM, 30 minutes at 37° C.
Assay [2] deals with Staphylococcus aureus. The description is as above. It is filed as biochemical. To be noted: chromogenic reagent terminal concentration 10 mM, 30 minutes at 37° C.
Assay [3] deals with Vibrio vulnificus. The assay is described as follows: Bacterial lysis efficacy by measuring optical density (OD). Particulars: initial O.D = 0.6143.
Assay [4] relates to Esherichia coli O157. The description is as above. Format: cell-based, Escherichia coli O157. To be noted: initial O.D = 0.8139.
The test system of assay [5] is Salmonella spp. The description is as above. Particulars: initial O.D = 1.4448.
Assay [6] deals with Staphylococcus aureus. The description is as above. Format: cell-based. Particulars: initial O.D = 1.1877.
The test system of assay [7] is Listeria monocytogenes. The assay is described as above. Format: cell-based. To be noted: initial O.D = 0.8336.
Assay [8] relates to Vibrio vulnificus. Put plainly: Coloring reaction test of chromogenic reagents, 96 well plate. It is filed as biochemical. To be noted: chromogenic reagent terminal concentration 10 mM, 30 minutes at 37° C.
Assay [9] concerns 5 food risk microorganisms. The assay is described as follows: Bacterial lysis efficacy by optical density, overall statements. To be noted: table 7. Format: cell-based.

Consider nine molecules from patent publication US20200298233A1, “MICROFLUIDIC PAPER CHIP FOR DETECTING MICRO-ORGANISM, METHOD FOR PREPARING THE SAME AND METHOD FOR DETECTING MICRO-ORGANISM USING THE SAME” (BIOMAX CO., LTD., priority 2017, published 2020).

Where “and” joins values, the source holds several entries; their conditions need not be identical. Equal entries are not always repeated.

Turning to `O=P([O-])([O-])Oc1c[nH]c2ccc(Br)c(Cl)c12.[Na+].[Na+]` [X-phosphate, 5-Bromo-4-chloro-3-indoxyl phosphate, disodium salt], the coloring reaction result in [1] was “unique and strong coloring reaction”; in assay [2], “unique coloring reaction”.
In the case of `CCCCCCCCCCCCCCCC[N+](C)(C)CCCS(=O)(=O)[O-]` [SB3-16, 3-(Hexadecyldimethylammonio)propane-1-sulfonate], the Optical density in [3] (detergent 0.1%) was 0.1196 and 0.1210 and 0.1170; in assay [3] (detergent 0.5%), 0.0680 and 0.0627 and 0.0656; in assay [3] (detergent 1%), 0.0553 and 0.0506 and 0.0521; in assay [3] (detergent 2%), 0.0399 and 0.0421 and 0.0383; in assay [3] (detergent 3%), 0.0395 and 0.0407 and 0.0453; in assay [3] (detergent 5%) it was 0.0324 and 0.0317 and 0.0323. Further, the Optical density in [4] (detergent 0.1%) is 0.9950 and 1.0011 and 0.9956; in [4] (detergent 0.5%), 1.0314 and 1.0172 and 1.0085; in assay [4] (detergent 1%) it was 0.8049 and 0.7896 and 0.7856; in assay [4] (detergent 2%), 0.8432 and 0.8338 and 0.8284; in [4] (detergent 3%), 0.8710 and 0.8653 and 0.8610; in [4] (detergent 5%) it was 0.9536 and 0.9258 and 0.9244. Also, the Optical density in assay [5] (detergent 0.1%) is 0.6487 and 0.6399 and 0.6538; in [5] (detergent 0.5%) it was 0.7598 and 0.7515 and 0.7651; in assay [5] (detergent 1%), 0.4932 and 0.4918 and 0.4892; in assay [5] (detergent 2%), 0.4688 and 0.4680 and 0.4676; in assay [5] (detergent 3%) it was 0.4487 and 0.4508 and 0.4516; in [5] (detergent 5%), 0.4594 and 0.4580 and 0.4632. The Optical density in assay [6] (detergent 0.1%) was 1.0492 and 1.0472 and 1.0449; in assay [6] (detergent 1%) it was 1.1763 and 1.1734 and 1.1719; in assay [6] (detergent 2%), 1.0764 and 1.0741 and 1.0744; in assay [6] (detergent 3%), 1.0675 and 1.0649 and 1.0654; in assay [6] (detergent 5%), 1.0721 and 1.0700 and 1.0711; in assay [7] (detergent 0.1%) it was 0.7770 and 0.8027 and 0.8073. Moreover, the Optical density was 0.7764 and 0.7530 and 0.7657 in assay [7] (detergent 0.5%); 0.8133 and 0.8142 and 0.8238 in assay [7] (detergent 1%); 0.7546 and 0.7725 and 0.7891 in assay [7] (detergent 2%); 0.7213 and 0.7797 and 0.7969 in assay [7] (detergent 3%); 0.6344 and 0.6340 and 0.6042 in [7] (detergent 5%).
`CCCCCCCCCCCC[N+](C)(C)CCCS(=O)(=O)[O-]` [SB3-10, 3-(Dodecyldimethylammonio)propane-1-sulfonate]: the Optical density in assay [3] (detergent 0.1%) is 0.3351 and 0.3199 and 0.3176; in [3] (detergent 0.5%) it was 0.2124 and 0.2149 and 0.2105; in assay [3] (detergent 1%), 0.1822 and 0.1758 and 0.1891; in assay [3] (detergent 2%), 0.1627 and 0.1647 and 0.1624; in assay [3] (detergent 3%), 0.0869 and 0.0865 and 0.0893; in assay [3] (detergent 5%), 0.1477 and 0.1578 and 0.1677. Also, the Optical density in assay [4] (detergent 0.1%) is 0.5979 and 0.5907 and 0.5816; in assay [4] (detergent 0.5%), 0.6803 and 0.6818 and 0.6832; in assay [4] (detergent 1%) it was 0.5228 and 0.5223 and 0.5253; in assay [4] (detergent 2%), 0.5845 and 0.5861 and 0.5779; in [4] (detergent 3%) it was 0.6355 and 0.6371 and 0.6311; in assay [4] (detergent 5%), 0.8160 and 0.8061 and 0.8134. Further, the Optical density in [5] (detergent 0.1%) was 0.9125 and 0.9111 and 0.9138; in assay [5] (detergent 0.5%), 0.4241 and 0.4359; in [5] (detergent 1%), 0.4611 and 0.4597 and 0.4705; in [5] (detergent 2%) it was 0.4310 and 0.4345; in assay [5] (detergent 3%) it was 0.4184 and 0.4186 and 0.4199; in assay [5] (detergent 5%), 0.9464 and 0.9488 and 0.9479. In addition, the Optical density in [6] (detergent 0.1%) is 0.9335 and 0.9313 and 0.9293; in [6] (detergent 0.5%) it was 0.9517 and 0.9486 and 0.9454; in assay [6] (detergent 1%) it was 0.8872 and 0.8856 and 0.8847; in assay [6] (detergent 2%), 0.8495 and 0.8478 and 0.8480; in assay [6] (detergent 3%) it was 0.5582 and 0.5458 and 0.5385; in assay [6] (detergent 5%) it was 0.8456 and 0.8446 and 0.8442. The Optical density was 0.7689 and 0.8003 and 0.7683 in assay [7] (detergent 0.1%); 0.7694 and 0.7802 and 0.7866 in assay [7] (detergent 0.5%); 0.7935 and 0.7994 and 0.8055 in assay [7] (detergent 1%); 0.7242 and 0.7341 and 0.7357 in assay [7] (detergent 2%); 0.6917 and 0.7252 and 0.7227 in assay [7] (detergent 3%); 0.8414 and 0.8448 and 0.8431 in assay [7] (detergent 5%).
On to “5-bromo-4-chloro-3-indoxyl-alpha-D-glucopyranoside [X-alpha-glucospyranoside]”, for which the coloring reaction result in assay [8] was “unique coloring reaction”.
`OC[C@H]1O[C@H](Oc2c[nH]c3cc(Cl)ccc23)[C@H](O)[C@@H](O)[C@@H]1O` [Salmon-alpha-glucospyranoside, 6-Chloro-3-indoxyl-alpha-D-glucopyranoside]: the coloring reaction result in assay [8] was “unique coloring reaction”; in assay [1], “unique and strong coloring reaction”; in [2] it was “unique coloring reaction”.
Consider `CCCCCCCC(=O)Oc1c[nH]c2cc(Cl)c(Br)cc12` [Magenta-caprylate, 5-Bromo-6-chloro-3-indoxyl caprylate], for which the coloring reaction result in [1] was “higher intensity and speed”; in assay [2] it was “showed coloring reaction”.
For the molecule `CCCCCCCc1ccc(C(O)CC[N+](C)(C)CCCS(=O)(=O)[O-])cc1` (stereo not shown) [C7BzO, 3-[[3-(4-heptylphenyl)-3-hydroxypropyl]-dimethylazaniumyl]propane-1-sulfonate], in assay [9], the “lysis efficacy on addition to 1% (v/v) SB3-14” value is reported as “increased the most”.
As to “5-Bromo-6-chloro-3-indolyl-beta-D-glucopyranoside [Magenta-beta-glucopyranoside]”, the coloring reaction entry in assay [8] was “unique coloring reaction”.
For Triton X-100, the Optical density is 0.3916 and 0.3935 and 0.3923 in assay [3] (detergent 0.1%); 0.3421 and 0.3417 and 0.3437 in assay [3] (detergent 0.5%); 0.2844 and 0.2794 and 0.2801 in assay [3] (detergent 1%); 0.3044 and 0.3089 and 0.3046 in assay [3] (detergent 2%); 0.2947 and 0.2950 and 0.2966 in [3] (detergent 3%); 0.2499 and 0.2478 and 0.2431 in assay [3] (detergent 5%). The Optical density in assay [4] (detergent 0.1%) is 0.8888 and 0.8930 and 0.8848; in [4] (detergent 1%) it was 0.9722 and 0.9715 and 0.9720; in [4] (detergent 2%), 0.9793 and 0.9819 and 0.9767; in assay [4] (detergent 3%), 0.9052 and 0.9049 and 0.9035; in assay [4] (detergent 5%), 0.9238 and 0.9183 and 0.9254; in [5] (detergent 0.1%) it was 1.0968 and 1.0927 and 1.0890. The Optical density is 1.0965 and 1.0899 and 1.1089 in [5] (detergent 0.5%); 0.8827 and 0.8879 and 0.8963 in assay [5] (detergent 1%); 0.9457 and 0.9452 and 0.9464 in assay [5] (detergent 2%); 0.8287 and 0.8303 and 0.8231 in assay [5] (detergent 3%); 0.8258 and 0.8240 and 0.8249 in assay [5] (detergent 5%); 1.1248 and 1.1255 and 1.1291 in assay [6] (detergent 0.1%). Also, the Optical density in [6] (detergent 1%) was 1.2024 and 1.2028 and 1.2027; in assay [6] (detergent 2%), 1.2247 and 1.2245 and 1.2231; in assay [6] (detergent 3%), 1.1855 and 1.1810 and 1.1826; in [6] (detergent 5%) it was 1.2147 and 1.2108 and 1.2034; in assay [7] (detergent 0.1%), 0.7013 and 0.7077 and 0.7059; in assay [7] (detergent 0.5%), 0.7398 and 0.7403 and 0.7414. Also, the Optical density in assay [7] (detergent 1%) was 0.6622 and 0.6765 and 0.6766; in assay [7] (detergent 2%), 0.7014 and 0.7164 and 0.7099; in assay [7] (detergent 3%), 0.6407 and 0.6609 and 0.6608; in assay [7] (detergent 5%) it was 0.6213 and 0.6340 and 0.6310.
